Drawing on patent publication US8697739B2, “Bicyclic acetyl-CoA carboxylase inhibitors and uses thereof” (Novartis AG, priority 2010, dated 2014), this text covers IC50 for 28 molecules.

T1 sequence (O00763 144-2458): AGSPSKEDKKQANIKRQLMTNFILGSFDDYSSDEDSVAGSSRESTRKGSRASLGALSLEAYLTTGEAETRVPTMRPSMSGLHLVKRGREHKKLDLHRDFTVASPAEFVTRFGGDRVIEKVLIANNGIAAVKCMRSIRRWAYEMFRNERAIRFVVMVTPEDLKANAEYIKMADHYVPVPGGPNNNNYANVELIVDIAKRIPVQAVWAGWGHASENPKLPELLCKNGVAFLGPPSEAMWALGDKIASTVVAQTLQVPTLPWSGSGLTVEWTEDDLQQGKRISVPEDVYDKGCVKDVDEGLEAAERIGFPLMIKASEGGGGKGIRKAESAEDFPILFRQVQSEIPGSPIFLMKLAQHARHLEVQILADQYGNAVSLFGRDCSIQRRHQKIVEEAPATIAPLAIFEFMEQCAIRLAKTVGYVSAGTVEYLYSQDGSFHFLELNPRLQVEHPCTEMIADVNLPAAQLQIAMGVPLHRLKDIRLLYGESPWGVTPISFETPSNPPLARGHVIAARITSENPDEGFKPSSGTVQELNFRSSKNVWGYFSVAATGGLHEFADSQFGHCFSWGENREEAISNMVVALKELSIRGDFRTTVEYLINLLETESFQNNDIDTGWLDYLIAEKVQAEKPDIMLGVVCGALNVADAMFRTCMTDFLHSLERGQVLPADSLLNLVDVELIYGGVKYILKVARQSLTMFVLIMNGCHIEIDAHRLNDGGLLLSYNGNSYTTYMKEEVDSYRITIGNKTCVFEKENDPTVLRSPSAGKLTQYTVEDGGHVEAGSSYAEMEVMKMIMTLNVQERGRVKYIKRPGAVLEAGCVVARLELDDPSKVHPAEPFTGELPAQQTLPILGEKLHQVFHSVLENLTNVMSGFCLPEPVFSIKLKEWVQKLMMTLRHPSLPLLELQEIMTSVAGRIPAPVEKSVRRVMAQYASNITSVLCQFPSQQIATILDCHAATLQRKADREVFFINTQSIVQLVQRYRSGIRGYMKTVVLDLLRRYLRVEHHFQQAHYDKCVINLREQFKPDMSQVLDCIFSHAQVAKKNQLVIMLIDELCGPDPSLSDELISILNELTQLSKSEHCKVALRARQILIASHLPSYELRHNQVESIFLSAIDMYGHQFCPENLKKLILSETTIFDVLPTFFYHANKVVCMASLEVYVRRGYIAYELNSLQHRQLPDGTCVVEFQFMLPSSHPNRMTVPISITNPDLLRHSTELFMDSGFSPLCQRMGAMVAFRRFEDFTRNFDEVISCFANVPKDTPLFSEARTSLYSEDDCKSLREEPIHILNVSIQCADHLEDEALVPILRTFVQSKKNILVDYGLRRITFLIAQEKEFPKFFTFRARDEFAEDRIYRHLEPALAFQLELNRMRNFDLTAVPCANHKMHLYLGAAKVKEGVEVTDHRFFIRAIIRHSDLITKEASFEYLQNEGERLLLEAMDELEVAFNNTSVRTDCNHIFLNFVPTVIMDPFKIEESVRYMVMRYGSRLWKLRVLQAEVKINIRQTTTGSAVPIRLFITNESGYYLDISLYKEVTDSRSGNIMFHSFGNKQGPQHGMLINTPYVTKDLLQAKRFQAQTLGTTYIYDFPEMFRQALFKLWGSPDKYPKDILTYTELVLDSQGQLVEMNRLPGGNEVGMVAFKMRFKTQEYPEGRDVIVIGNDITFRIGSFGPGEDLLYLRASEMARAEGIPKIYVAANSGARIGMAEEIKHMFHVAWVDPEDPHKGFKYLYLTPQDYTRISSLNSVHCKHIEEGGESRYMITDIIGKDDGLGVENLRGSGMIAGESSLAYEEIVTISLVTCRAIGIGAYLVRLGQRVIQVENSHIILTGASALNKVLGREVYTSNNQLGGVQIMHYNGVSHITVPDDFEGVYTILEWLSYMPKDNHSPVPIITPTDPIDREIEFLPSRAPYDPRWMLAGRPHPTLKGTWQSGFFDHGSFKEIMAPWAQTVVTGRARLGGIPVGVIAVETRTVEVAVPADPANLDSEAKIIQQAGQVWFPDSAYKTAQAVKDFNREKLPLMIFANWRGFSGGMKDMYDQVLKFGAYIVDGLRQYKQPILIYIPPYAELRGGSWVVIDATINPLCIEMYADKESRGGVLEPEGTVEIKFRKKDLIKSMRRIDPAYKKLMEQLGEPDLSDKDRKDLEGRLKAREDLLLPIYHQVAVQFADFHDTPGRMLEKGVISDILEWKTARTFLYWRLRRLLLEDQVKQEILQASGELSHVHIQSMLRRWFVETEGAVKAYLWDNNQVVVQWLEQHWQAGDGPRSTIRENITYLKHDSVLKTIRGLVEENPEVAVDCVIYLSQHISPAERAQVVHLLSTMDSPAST

This assay addresses T1, human acetyl-CoA carboxylase 2 (ACC2) (Homo sapiens, UniProt O00763).
T1 construct: The cDNA encoding amino acids 144 to 2458 of human acetyl-CoA carboxylase 2; made in house; host or cells: Sf9 insect cells (baculovirus, pFastBac1)
The assay can be described thus: Acetyl-CoA carboxylase enzyme assay (malonyl-CoA formation by LC/MS/MS). The format is biochemical. To be noted: recombinant human ACC2 (aa 144-2458); read-out: IC50 ACC2. The essentials:
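Malonyl-CoA formation was read by LC/MS/MS MRM against a [13C3]-malonyl-CoA internal standard, after acetic acid quench. The enzyme was baculovirus/Sf9-expressed human ACC2 residues 144–2458, given 15 minutes room-temperature compound preincubation in HEPES pH 7.5 buffer with MgCl2, citrate and DTT. Substrate solution held 50 μM acetyl-CoA, 120 μM ATP and 2 mM KHCO3.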
One may read the IC50 as the point on the concentration scale where inhibition reaches its midpoint. Turning to `Cn1c(-c2ccccc2)cc2cc(S(=O)(=O)N[C@H]3CC[C@H](C(=O)N[C@H](CC(=O)O)c4ccccc4)CC3)ccc21` [Example 95, (R)-3-((1r,4R)-4-(1-methyl-2-phenyl-1H-indole-5-sulfonamido)cyclohexanecarboxamido)-3-phenylpropanoic acid], the 50% inhibitory concentration (IC50) is 30 nM. Consider `O=S(=O)(Nc1ccc(-c2nnc(-c3ccccc3)o2)cc1)c1ccc2nc(-c3ccccc3)[nH]c2c1` [Example 518, 2-phenyl-N-(4-(5-phenyl-1,3,4-oxadiazol-2-yl)phenyl)-1H-benzo[d]imidazole-6-sulfonamide], for which the IC50 came out at 3580 nM.

In the case of `Cc1cccc(Nc2nc3cc(S(=O)(=O)Nc4ccc(C(=O)OC(C)C)cc4)ccc3[nH]2)c1` [Example 536, isopropyl 4-(2-(m-tolylamino)-1H-benzo[d]imidazole-5-sulfonamido)benzoate], the half-inhibitory concentration (IC50) was determined as 412 nM.

Take `CCN(CC)c1ccc(Nc2nc3cc(S(=O)(=O)Nc4ccc(C(=O)OC(C)C)cc4)ccc3[nH]2)cc1` [Example 537, isopropyl 4-(2-(4-(diethylamino)phenylamino)-1H-benzo[d]imidazole-5-sulfonamido)benzoate]: the IC50 was determined as 290 nM. As for `Cn1c(-c2ccc(CCC(=O)O)cc2)cc2ccc(S(=O)(=O)N[C@H]3CC[C@H](C(=O)N4CCOC[C@@H]4C4CC4)CC3)cc21` [Example 476, 3-(4-(6-(N-((1S,4r)-4-((S)-3-cyclopropylmorpholine-4-carbonyl)cyclohexyl)sulfamoyl)-1-methyl-1H-indol-2-yl)phenyl)propanoic acid], the IC50 is < 10 nM. On to `C[C@H](NC(=O)[C@H]1CC[C@H](NS(=O)(=O)c2ccc3ccccc3c2)CC1)c1cccnc1` [Example 683, (1r,4S)-4-(naphthalene-2-sulfonamido)-N-((S)-1-(pyridin-3-yl)ethyl)cyclohexanecarboxamide], for which the IC50 is > 35000 nM. To `C[C@@H](NC(=O)[C@H]1CC[C@H](NS(=O)(=O)c2ccc3[nH]c([C@@H]4CC(F)(F)CN4)nc3c2)CC1)c1ccc(F)cc1` [Example 118, (1r,4R)-4-(2-((S)-4,4-difluoropyrrolidin-2-yl)-1H-benzo[d]imidazole-5-sulfonamido)-N-((R)-1-(4-fluorophenyl)ethyl)cyclohexanecarboxamide] belongs 1750 nM; to `CC(C)c1nnc(-c2ccc(NS(=O)(=O)c3ccc4[nH]c(Nc5ccc(N6CCN(C)CC6)cc5)nc4c3)cc2)o1` [Example 605, N-(4-(5-isopropyl-1,3,4-oxadiazol-2-yl)phenyl)-2-(4-(4-methylpiperazin-1-yl)phenylamino)-1H-benzo[d]imidazole-5-sulfonamide], 138 nM; to `Cc1c(-c2ccc(CCC(=O)O)cc2)n(C)c2cc(S(=O)(=O)N[C@H]3CC[C@H](C(=O)N4CCOC[C@@H]4C4CC4)CC3)ccc12` [Example 484, 3-(4-(6-(N-((1S,4r)-4-((S)-3-cyclopropylmorpholine-4-carbonyl)cyclohexyl)sulfamoyl)-1,3-dimethyl-1H-indol-2-yl)phenyl)propanoic acid], < 10 nM. To `CC(C)(C)OC(=O)N1CCN(C(=O)[C@H]2CC[C@H](NS(=O)(=O)c3ccc4c(c3)Cc3ccccc3-4)CC2)[C@@H](c2ccccc2)C1` [Example 240, (S)-tert-butyl 4-((1r,4S)-4-(9H-fluorene-2-sulfonamido)cyclohexanecarbonyl)-3-phenylpiperazine-1-carboxylate] belongs < 10 nM; to `CC(C)(C)c1nnc([C@H]2CC[C@H](NS(=O)(=O)c3ccc4[nH]c(-c5ccc(Cl)cc5)nc4c3)CC2)o1` [Example 609, N-((1r,4r)-4-(5-tert-butyl-1,3,4-oxadiazol-2-yl)cyclohexyl)-2-(4-chlorophenyl)-1H-benzo[d]imidazole-5-sulfonamide], 1220 nM; to `CC(C)N1CCNc2ncc(S(=O)(=O)N[C@H]3CC[C@H](C(=O)N[C@H](C)c4ccc(F)cc4)CC3)cc21` [Example 141, (1r,4R)-N-((R)-1-(4-fluorophenyl)ethyl)-4-(1-isopropyl-1,2,3,4-tetrahydropyrido[3,2-b]pyrazine-7-sulfonamido)cyclohexanecarboxamide], 579 nM.

As for `COc1ccc(-c2cc3ccc(S(=O)(=O)N[C@H]4CC[C@H](C(=O)N[C@H](C)c5ccc(F)cc5)CC4)cc3[nH]2)c(C)c1` [Example 297, (1r,4R)-N-((R)-1-(4-fluorophenyl)ethyl)-4-(2-(4-methoxy-2-methylphenyl)-1H-indole-6-sulfonamido)cyclohexanecarboxamide], the half-maximal inhibitory concentration (IC50) stood at 17 nM. The same measure for `Cn1c(-c2ccccc2)cc2ccc(S(=O)(=O)N[C@H]3CC[C@H](C(=O)N4CCOC(C)(C)C4)CC3)cc21` [Example 442, N-((1r,4r)-4-(2,2-dimethylmorpholine-4-carbonyl)cyclohexyl)-1-methyl-2-phenyl-1H-indole-6-sulfonamide]: 40 nM; for `Cn1c(C2CC2)c(Cl)c2ccc(S(=O)(=O)N[C@H]3CC[C@H](C(=O)N4CCN[C@@H](C(F)(F)F)C4)CC3)cc21` [Example 362, 3-chloro-2-cyclopropyl-1-methyl-N-((1R,4r)-4-((R)-3-(trifluoromethyl)piperazine-1-carbonyl)cyclohexyl)-1H-indole-6-sulfonamide]: 75 nM; for `Cc1nc2cc(S(=O)(=O)N[C@H]3CC[C@H](C(=O)N[C@H](C)c4ccccc4)CC3)ccc2[nH]1` [Example 614, (1r,4R)-4-(2-methyl-1H-benzo[d]imidazole-5-sulfonamido)-N-((R)-1-phenylethyl)cyclohexanecarboxamide]: 142 nM. To `C=Cc1ccc2cc(S(=O)(=O)N[C@H]3CC[C@H](C(=O)N[C@H](C)c4ccc(F)cc4)CC3)ccc2n1` [Example 71, (1r,4R)-N-((R)-1-(4-fluorophenyl)ethyl)-4-(2-vinylquinoline-6-sulfonamido)cyclohexanecarboxamide] belongs 405 nM; to `COCCc1ccc(-c2[nH]c3cc(S(=O)(=O)N[C@H]4CC[C@H](C(=O)N5CCOC[C@@H]5C(C)C)CC4)ccc3c2Cl)cc1` [Example 461, 3-chloro-N-((1S,4r)-4-((S)-3-isopropylmorpholine-4-carbonyl)cyclohexyl)-2-(4-(2-methoxyethyl)phenyl)-1H-indole-6-sulfonamide], < 10 nM; to `CC(C)[Si](C(C)C)(C(C)C)n1cc(Cl)c2ccc(S(=O)(=O)N[C@H]3CC[C@H](C(=O)N[C@H](C)c4ccc(F)cc4)CC3)cc21` [Example 116, (1r,4R)-4-(3-chloro-1-(triisopropylsilyl)-1H-indole-6-sulfonamido)-N-((R)-1-(4-fluorophenyl)ethyl)cyclohexanecarboxamide], 13 nM.

Take `O=C(NCc1cc(F)cc(F)c1)[C@H]1CC[C@H](NS(=O)(=O)c2ccc3[nH]c(-c4ccccc4)nc3c2)CC1` [Example 644, (1r,4r)-N-(3,5-difluorobenzyl)-4-(2-phenyl-1H-benzo[d]imidazole-5-sulfonamido)cyclohexanecarboxamide]: the IC50 was found to be 588 nM. The same measure for `O=C(Nc1cc(F)cc(F)c1)[C@H]1CC[C@H](NS(=O)(=O)c2ccc3[nH]c(-c4ccccc4)nc3c2)CC1` [Example 646, (1r,4r)-N-(3,5-difluorophenyl)-4-(2-phenyl-1H-benzo[d]imidazole-5-sulfonamido)cyclohexanecarboxamide]: 1340 nM. To `C[C@@H](NC(=O)[C@H]1CC[C@H](NS(=O)(=O)c2ccc3[nH]c(-c4ccc(F)cc4)nc3c2)CC1)c1ccccc1` [Example 276, (1r,4R)-4-(2-(4-fluorophenyl)-1H-benzo[d]imidazole-5-sulfonamido)-N-((R)-1-phenylethyl)cyclohexanecarboxamide] belongs < 10 nM; to `O=C([C@H]1CC[C@H](NS(=O)(=O)c2ccc3cc(-c4ccccc4C(F)(F)F)[nH]c3c2)CC1)N1CCNC[C@@H]1c1ccccc1` [Example 333, N-((1S,4r)-4-((S)-2-phenylpiperazine-1-carbonyl)cyclohexyl)-2-(2-(trifluoromethyl)phenyl)-1H-indole-6-sulfonamide], 65 nM. For the molecule `C[C@@H](NC(=O)[C@H]1CC[C@H](NS(=O)(=O)c2ccc3[nH]c(-c4cccc(C(=O)O)c4)nc3c2)CC1)c1ccccc1` [Example 279, 3-(5-(N-((1R,4r)-4-((R)-1-phenylethylcarbamoyl)cyclohexyl)sulfamoyl)-1H-benzo[d]imidazol-2-yl)benzoic acid], the concentration for half-maximal inhibition (IC50) was 100 nM.

For `C[C@@H](NC(=O)[C@H]1CC[C@H](NS(=O)(=O)c2ccc3cc(-c4ccccc4C#N)[nH]c3c2)CC1)c1ccc(F)cc1` [Example 307, (1r,4R)-4-(2-(2-cyanophenyl)-1H-indole-6-sulfonamido)-N-((R)-1-(4-fluorophenyl)ethyl)cyclohexanecarboxamide], the half-maximal inhibitory concentration (IC50) came to 10 nM. Consider `C[C@@H](NC(=O)[C@H]1CC[C@H](NS(=O)(=O)c2ccc3nc(-c4ccccn4)ccc3c2)CC1)c1ccc(F)cc1` [Example 230, (1r,4R)-N-((R)-1-(4-fluorophenyl)ethyl)-4-(2-(pyridin-2-yl)quinoline-6-sulfonamido)cyclohexanecarboxamide], for which the concentration for half-maximal inhibition (IC50) is 60 nM. On to `O=C(OCc1ccccc1)[C@H]1CC[C@H](NS(=O)(=O)c2ccc3nc(-c4ccccc4)[nH]c3c2)CC1` [Example 99, (1r,4r)-benzyl 4-(2-phenyl-1H-benzo[d]imidazole-6-sulfonamido)cyclohexanecarboxylate], for which the concentration for half-maximal inhibition (IC50) turned out to be 494 nM. The same measure for `O=C([C@H]1CC[C@H](NS(=O)(=O)c2cnc3c(c2)NCCS3)CC1)N1CCNC[C@@H]1c1ccccc1` [Example 192, N-((1S,4r)-4-((S)-2-phenylpiperazine-1-carbonyl)cyclohexyl)-2,3-dihydro-1H-pyrido[2,3-b][1,4]thiazine-7-sulfonamide]: 15 nM.
